Test results published in patent US9000045B2, “CETP activity inhibitors” (Japan Tobacco Inc., priority 1997, dated 2015).

Molecular target: T1, CETP (Homo sapiens, UniProt P11597)
T1 sequence (P11597 18-493): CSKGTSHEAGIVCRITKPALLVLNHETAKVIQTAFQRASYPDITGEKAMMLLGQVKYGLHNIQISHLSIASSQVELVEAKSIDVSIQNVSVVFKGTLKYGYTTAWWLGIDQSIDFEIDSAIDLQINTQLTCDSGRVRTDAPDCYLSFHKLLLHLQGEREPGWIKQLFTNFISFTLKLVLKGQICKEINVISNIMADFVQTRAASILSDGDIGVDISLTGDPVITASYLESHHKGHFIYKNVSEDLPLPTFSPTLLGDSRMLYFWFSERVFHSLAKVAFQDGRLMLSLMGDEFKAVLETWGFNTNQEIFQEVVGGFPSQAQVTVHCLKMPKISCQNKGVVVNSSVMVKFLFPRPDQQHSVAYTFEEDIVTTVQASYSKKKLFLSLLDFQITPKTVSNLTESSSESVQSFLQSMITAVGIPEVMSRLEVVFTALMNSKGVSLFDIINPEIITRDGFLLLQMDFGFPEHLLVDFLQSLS
Assay: In vitro CETP activity inhibitory effect in whole plasma
Format: biochemical
Design: Plasma containing [^3H]CE-HDL3 (600,000 dpm/ml) was prepared by adding donor lipoprotein obtained in the above (1) to plasma from healthy subjects; from tissue; host or cells: whole plasma of healthy subjects
Conditions: plasma from healthy subjects containing [3H]CE-HDL3, incubated 4 hours at 37° C.; read-out: CETP activity inhibition in whole plasma IC50
Experimental: The fraction thus obtained was dialyzed against a PBS solution [10 mM Na2HPO4/10 mM NaH2PO4/0.15 M NaCl/1 mM EDTA (pH 7.4)]. Then, tritium-labeled cholesterol (10 nM) (50.3 Ci/mM) was dissolved in 95% ethanol and added gradually to the above HDL3 fraction under stirring. The solution was incubated for 18 hours at 37° C. […] After incubation, KBr was added and specific gravity was adjusted to d=1.21 g/ml. […] A sample solution was prepared using a 1:1 solution of N-methylpyrrolidone and polyethyleneglycol 400 as a solvent. […] Based on the inhibition rate (%) of CETP activity, IC50 value of each sample was calculated.

Row | IC50 [µM] | Structure (SMILES)
1 | 17 | CC1(C(=O)Nc2cc(F)c(F)cc2S)CCCCC1 [Example 19-5]
2 | 10 | CC(C(=O)Nc1cc(Cl)c(Cl)cc1SC(=O)C(C)(C)C)C1CCCCC1 (stereo not drawn) [Example 68]
3 | 33 | CC(C)(C)C(=O)Nc1ccccc1SC(=O)CCCc1ccccc1 [Example 25-12]
4 | 19 | CC(C)(C)C(=O)Sc1cc(Cl)c(Cl)cc1NC(=O)[C@]12CCCC[C@@H]1CCCC2 [Example 66-22]
5 | 36 | CC(=O)N[C@@H](Cc1ccccc1)C(=O)Sc1cc(Cl)c(Cl)cc1NC(=O)C1(CCC(C)C)CCCCC1 [Example 25-76]
6 | 9 | CC(C)(C)C(=O)Sc1cc(Cl)c(Cl)cc1NC(=O)C1(C)CCCCC1 [Example 66-9]
7 | 8 | CC(C)(C)C(=O)Sc1cc(Cl)c(Cl)cc1NC(=O)C1CCC(C(C)(C)C)CC1 (stereo not drawn) [Example 66-26]
8 | 22 | CC1(C(=O)Nc2cc(C(F)(F)F)ccc2SC(=O)Sc2ccccc2)CCCCC1 [Example 25-93]
9 | 9 | CC(=O)N[C@@H](C)C(=O)Sc1ccccc1NC(=O)C1(CCC(C)C)CCCCC1 [Example 25-44]
10 | 5 | CC(C)CCC1(C(=O)Nc2cc(Cl)c(Cl)cc2SC(=O)CN(C)C)CCCCC1 [Example 25-80]
11 | 12 | CCC1(C(=O)Nc2ccccc2S)CCCCC1 [Example 15]
12 | 21 | CCCCC(=O)Nc1ccccc1SSc1ccccc1NC(=O)CCCC [Example 1-8]
13 | 5 | CC(C)CCC1(C(=O)Nc2ccccc2SC(=O)c2cccnc2)CCCC1 [Example 25-60]
14 | 23 | CC1(C(=O)Nc2ccccc2SC(=O)Cc2ccccc2)CCCCC1 [Example 25-17]
15 | 5 | CC1(C(=O)Nc2ccccc2SSc2ccccc2NC(=O)C2(C)CCCCC2)CCCCC1 [Example 6]
16 | 20 | CC(C)(C)C(=O)Nc1ccccc1SSc1ccccc1NC(=O)C(C)(C)C [Example 1, bis-[2-(pivaloylamino)phenyl]disulfide]
17 | 48 | CC(C)(C)C(=O)Nc1ccccc1SC(=O)Cc1ccccc1NC(=O)C1(C)CCCCC1 [Example 25-20]
18 | 24 | CC1(C(=O)Nc2cc(Cl)ccc2SC(=O)Cc2ccccc2)CCCCC1 [Example 66-3]
19 | 40 | CC(C)CC1(C(=O)Nc2cc(Cl)c(Cl)cc2SC(=O)C(C)(C)C)CCCC1 [Example 66-49]
20 | 40 | CC(C)(C)C(=O)Sc1ccc(C(F)(F)F)cc1NC(=O)C1(C)CCCCC1 [Example 25-67]
21 | 18 | CC1(C(=O)Nc2ccc(F)cc2S)CCCCC1 [Example 19-6]
22 | 6 | CC(C)CCC1(C(=O)Nc2ccccc2SC(=O)[C@@H]2CCC(=O)N2)CCCCC1 [Example 25-54]
23 | 22 | CC(=O)N[C@H](Cc1ccccc1)C(=O)Sc1cc(Cl)c(Cl)cc1NC(=O)C1(C)CCCCC1 [Example 66-11]

Row | IC50 [µM] | Structure (SMILES)
24 | 22 | COC(=O)Sc1cc(Cl)c(Cl)cc1NC(=O)C1(CCC(C)C)CCCCC1 [Example 25-91]
25 | 7 | CC(C)CCC1(C(=O)Nc2cc(Cl)c(Cl)cc2SSc2cc(Cl)c(Cl)cc2NC(=O)C2(CCC(C)C)CCCCC2)CCCCC1 [Example 82, bis-[4,5-dichloro-2-(1-isopentylcyclohexane-carbonylamino)phenyl]disulfide]
26 | 27 | CC1(C(=O)Nc2ccccc2SC(=O)Cc2cccc(Cl)c2)CCCCC1 [Example 25-22]
27 | 41 | CC1(C(=O)Nc2ccccc2SC(=O)CC2CCCCC2)CCCCC1 [Example 25-16]
28 | 19 | CC(C)(C)C(=O)Sc1cc(Cl)c(Cl)cc1NC(=O)C1CCCCC1 [Example 66-25]
29 | 22 | CC1(C(=O)Nc2ccccc2CC(=O)Sc2ccccc2NC(=O)C2(C)CCCCC2)CCCCC1 [Example 25-19]
30 | 29 | CC(C)CCC1(C(=O)Nc2ccccc2SC(=O)C(c2ccccc2)c2ccccc2)CCCCC1 [Example 25-47]
31 | 14 | CC(C)CCC1(C(=O)Nc2cc(Cl)c(Cl)cc2SC(=O)c2ccccc2)CCCCC1 [Example 25-81]
32 | 28 | CC(C)(C)C(=O)Nc1ccccc1CC(=O)Sc1ccccc1NC(=O)C(C)(C)C [Example 25-13]
33 | 12 | CC(C)CCC1(C(=O)Nc2cc(Cl)c(Cl)cc2SC(=O)NC(C)C)CCCCC1 [Example 25-103]
34 | 12 | CC(C)(C)C(=O)Sc1cc(Cl)c(Cl)cc1NC(=O)[C@@]12CCCC[C@@H]1CCC2 [Example 66-24]
35 | 19 | CC1(C(=O)Nc2cc(F)ccc2S)CCCCC1 [Example 19-1]
36 | 11 | CC(C)(C)C(=O)Sc1cc(Cl)c(Cl)cc1NC(=O)C1(CCC2CC2)CCCCC1 [Example 66-48]
37 | 30 | CC(=O)N[C@@H](Cc1ccc(O)cc1)C(=O)Sc1ccccc1NC(=O)C1(C)CCCCC1 [Example 25-36]
38 | 11 | CC(C)CC(CC(C)C)C(=O)Nc1cc(Cl)c(Cl)cc1SC(=O)C(C)(C)C [Example 66-14]
39 | 37 | CC(C)CCC1(C(=O)Nc2cc(Cl)c(Cl)cc2SC(=O)C(C)(C)C)CCC1 [Example 73]
40 | 32 | CC(C)(C)C(=O)Nc1ccccc1SC(=O)Cc1ccccc1 [Example 31]
41 | 27 | CC(C)(C)C(=O)Sc1cc(Cl)c(Cl)cc1NC(=O)[C@H]1CC[C@H](C2CCCCC2)CC1 [Example 66-31]
42 | 23 | CC(C)CCC1(C(=O)Nc2ccccc2SC(=O)c2ccccc2)CCCCC1 [Example 44]
43 | 24 | CC1(C(=O)Nc2ccccc2SC(=O)Cc2ccc3ccccc3c2)CCCCC1 [Example 25-25]
44 | 22 | O=C(Nc1ccccc1SSc1ccccc1NC(=O)C1CCCCC1)C1CCCCC1 [Example 1-6]
45 | 22 | CC1(C(=O)Nc2ccccc2SC(=O)Cc2ccc(-c3ccccc3)cc2)CCCCC1 [Example 25-26]
46 | 25 | CC(C)(C)C(=O)Sc1cc(Cl)c(Cl)cc1NC(=O)C(C)(C)C1CCCCC1 [Example 66-41]

Row | IC50 [µM] | Structure (SMILES)
47 | 23 | CC(C)CCCC1(C(=O)Nc2cc(Cl)c(Cl)cc2SC(=O)C(C)(C)C)CCCCC1 [Example 66-43]
48 | 15 | CCNC(=O)Sc1cc(Cl)c(Cl)cc1NC(=O)C1(C)CCCCC1 [Example 66-53]
49 | 28 | CC(C)(C)C(=O)Sc1ccc(Cl)cc1NC(=O)C1(C)CCCCC1 [Example 66-4]
50 | 20 | CC(=O)N[C@@H](Cc1ccccc1)C(=O)Sc1ccccc1NC(=O)C1(C)CCCCC1 [Example 25-32]
51 | 18 | CC(C)(C)C1CCC(C(=O)Nc2ccccc2SSc2ccccc2NC(=O)C2CCC(C(C)(C)C)CC2)CC1 (stereo not drawn) [Example 1-13]
52 | 158 | CC(C)(C)C(=O)Nc1ccccc1SSc1ccccc1 [Example 84, phenyl 2-pivaloylaminophenyl disulfide]
53 | 72 | CC(C)(C)C(=O)Sc1ccccc1NC(=O)C1(C)CCCCC1 [Example 30]
54 | 19 | CC(C)(C)C(=O)Nc1ccccc1CC(=O)Sc1ccccc1NC(=O)C1(C)CCCCC1 [Example 25-18]
55 | 33 | Cc1ccc(S)c(NC(=O)C2(C)CCCCC2)c1 [Example 19-2]
56 | 41 | CC(C)C(=O)Nc1ccccc1SSc1ccccc1NC(=O)C(C)C [Example 1-1]
57 | 26 | CC1(C(=O)Nc2ccccc2SC(=O)[C@H](NC(=O)C2(C)CCCCC2)c2ccccc2)CCCCC1 [Example 25-41]
58 | 3 | CCCC(CCC)C(=O)Nc1ccccc1SSc1ccccc1NC(=O)C(CCC)CCC [Example 5]
59 | 12 | O=C(Nc1ccccc1SSc1ccccc1NC(=O)C12CC3CC(CC(C3)C1)C2)C12CC3CC(CC(C3)C1)C2 [Example 1-12]
60 | 22 | CC(C)[C@H]1CC[C@H](C(=O)Nc2cc(Cl)c(Cl)cc2SC(=O)C(C)(C)C)CC1 [Example 66-32]
61 | 46 | CC(C)(C)C(=O)Nc1ccccc1SC(=O)Cc1ccccc1[N+](=O)[O-] [Example 25-7]
62 | 10 | COCC(=O)Sc1cc(Cl)c(Cl)cc1NC(=O)C1(CCC(C)C)CCCCC1 [Example 25-86]
63 | 65 | CC1(C(=O)Nc2ccccc2SC(=O)Sc2ccccc2)CCCCC1 [Example 55]
64 | 17 | CC1(C(=O)Nc2ccccc2S)CCCCC1 [Example 12]
65 | 35 | CC(C)(C)CC1(C(=O)Nc2cc(Cl)c(Cl)cc2SC(=O)C(C)(C)C)CCCCC1 [Example 66-46]
66 | 24 | CC(=O)N1CCC[C@H]1C(=O)Sc1ccccc1NC(=O)C1(C)CCCCC1 [Example 25-37]
67 | 41 | CC(C)(C)C(=O)Nc1cc(C(F)(F)F)ccc1SC(=O)C(C)(C)C [Example 57]
68 | 9 | CC(C)CCC1(C(=O)Nc2ccccc2SC(=O)C2CCN(C)CC2)CCCC1 [Example 25-65]

Row | Structure (SMILES) | IC50 [µM]
69 | CC(C)(C)C(=O)Sc1cc(Cl)c(Cl)cc1NC(=O)C1C(C)(C)C1(C)C [Example 66-17] | 18
